Experiments:
Experiment in all cases: relative viability (nuclei count vs DMSO), 5 days (fraction); higher = more cells survive
NCI-H441 = system: NCI-H441
In short: (§1)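 Cells from lung cancer lines were seeded into 1536-well plates and, one day later, dosed by pin tool. Treatments were either a single drug or a fixed dose of an anchor drug with five library-drug doses (not always all listed) in √10 steps. After 5 days, nuclei were stained in a one-step fixation (final 0.05% Triton X-100, 1% formaldehyde, 1 ug/ml Hoechst) and counted on 4× images, and relative viability is the treated-to-vehicle nuclei ratio, as the median of duplicate plates.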

SW 900 = system: SW 900
In short: as §1

LCLC-103H = system: LCLC-103H
In short: as §1

NCI-H460 = system: NCI-H460
In short: as §1

NCI-H1651 = system: NCI-H1651
In short: as §1

SK-MES-1 = system: SK-MES-1
In short: as §1

LXF-289 = system: LXF-289
In short: as §1

NCI-H661 = system: NCI-H661
In short: as §1

RERF-LC-KJ = system: RERF-LC-KJ
In short: as §1

NCI-H1355 = system: NCI-H1355
In short: as §1

NCI-H727 = system: NCI-H727
In short: as §1

NCI-H3122 = system: NCI-H3122
In short: as §1

NCI-H1792 = system: NCI-H1792
In short: as §1

NCI-H1915 = system: NCI-H1915
In short: as §1

PC-14 = system: PC-14
In short: as §1

NCI-H2347 = system: NCI-H2347
In short: as §1

NCI-H520 = system: NCI-H520
In short: as §1

NCI-H1755 = system: NCI-H1755
In short: as §1

NCI-H322M = system: NCI-H322M
In short: as §1

NCI-H522 = system: NCI-H522
In short: as §1

Work on O=c1cc(N2CCOCC2)oc2c(-c3cccc4c3sc3ccccc34)cccc12 + CC(=O)c1c(C)c2cnc(Nc3ccc(N4CCNCC4)cn3)nc2n(C2CCCC2)c1=O [Palbociclib] (partner 0.5 µM) yielded a relative viability (NCI-H441; first compound 0.01 µM) of 0.21, a relative viability (NCI-H441; first compound 0.03162 µM) of 0.217 and a relative viability (NCI-H441; first compound 0.1 µM) of 0.207. The relative viability (NCI-H441; first compound 0.3162 µM) was 0.233, the relative viability (NCI-H441; first compound 1 µM) was 0.222 and the relative viability (SW 900; first compound 0.03162 µM) was 0.473. For the same compound, the relative viability (SW 900; first compound 0.1 µM) was 0.567, the relative viability (SW 900; first compound 0.3162 µM) was 0.507 and the relative viability (SW 900; first compound 1 µM) was 0.517. It also gave a relative viability (LCLC-103H; first compound 0.01 µM) of 0.446, a relative viability (LCLC-103H; first compound 0.03162 µM) of 0.439 and a relative viability (LCLC-103H; first compound 0.1 µM) of 0.513. The relative viability (LCLC-103H; first compound 0.3162 µM) was 0.514, the relative viability (LCLC-103H; first compound 1 µM) was 0.43 and the relative viability (NCI-H460; first compound 0.01 µM) was 0.178. It also gave a relative viability (NCI-H460; first compound 0.03162 µM) of 0.18, a relative viability (NCI-H460; first compound 0.1 µM) of 0.198 and a relative viability (NCI-H460; first compound 0.3162 µM) of 0.215. For the same compound, the relative viability (NCI-H460; first compound 1 µM) was 0.135, the relative viability (NCI-H1651; first compound 0.01 µM) was 0.528 and the relative viability (NCI-H1651; first compound 0.03162 µM) was 0.486. It also gave a relative viability (NCI-H1651; first compound 0.1 µM) of 0.555, a relative viability (NCI-H1651; first compound 0.3162 µM) of 0.555 and a relative viability (NCI-H1651; first compound 1 µM) of 0.513. It also gave a relative viability (SK-MES-1; first compound 0.01 µM) of 0.274, a relative viability (SK-MES-1; first compound 0.03162 µM) of 0.343 and a relative viability (SK-MES-1; first compound 0.1 µM) of 0.359. It also gave a relative viability (SK-MES-1; first compound 0.3162 µM) of 0.341, a relative viability (SK-MES-1; first compound 1 µM) of 0.295 and a relative viability (LXF-289; first compound 0.01 µM) of 0.631. For the same compound, the relative viability (LXF-289; first compound 0.03162 µM) was 0.59, the relative viability (LXF-289; first compound 0.1 µM) was 0.593 and the relative viability (LXF-289; first compound 0.3162 µM) was 0.583. For the same compound, the relative viability (LXF-289; first compound 1 µM) was 0.595, the relative viability (NCI-H661; first compound 0.01 µM) was 0.417 and the relative viability (NCI-H661; first compound 0.03162 µM) was 0.41. It also gave a relative viability (NCI-H661; first compound 0.1 µM) of 0.375, a relative viability (NCI-H661; first compound 0.3162 µM) of 0.416 and a relative viability (NCI-H661; first compound 1 µM) of 0.398. The relative viability (RERF-LC-KJ; first compound 0.01 µM) was 1.06, the relative viability (RERF-LC-KJ; first compound 0.03162 µM) was 1.1 and the relative viability (RERF-LC-KJ; first compound 0.1 µM) was 1.04. For the same compound, the relative viability (RERF-LC-KJ; first compound 0.3162 µM) was 1.09, the relative viability (RERF-LC-KJ; first compound 1 µM) was 1.08 and the relative viability (NCI-H1355; first compound 0.01 µM) was 0.424. For the same compound, the relative viability (NCI-H1355; first compound 0.03162 µM) was 0.403, the relative viability (NCI-H1355; first compound 0.1 µM) was 0.412 and the relative viability (NCI-H1355; first compound 0.3162 µM) was 0.39. For the same compound, the relative viability (NCI-H1355; first compound 1 µM) was 0.392, the relative viability (NCI-H727; first compound 0.01 µM) was 0.66 and the relative viability (NCI-H727; first compound 0.03162 µM) was 0.6. The relative viability (NCI-H727; first compound 0.1 µM) was 0.624, the relative viability (NCI-H727; first compound 0.3162 µM) was 0.699 and the relative viability (NCI-H727; first compound 1 µM) was 0.737. For the same compound, the relative viability (NCI-H3122; first compound 0.01 µM) was 0.171, the relative viability (NCI-H3122; first compound 0.03162 µM) was 0.183 and the relative viability (NCI-H3122; first compound 0.1 µM) was 0.167. For the same compound, the relative viability (NCI-H3122; first compound 0.3162 µM) was 0.177, the relative viability (NCI-H3122; first compound 1 µM) was 0.161 and the relative viability (NCI-H1792; first compound 0.01 µM) was 0.641. For the same compound, the relative viability (NCI-H1792; first compound 0.03162 µM) was 0.577, the relative viability (NCI-H1792; first compound 0.1 µM) was 0.658 and the relative viability (NCI-H1792; first compound 0.3162 µM) was 0.668. For the same compound, the relative viability (NCI-H1792; first compound 1 µM) was 0.683, the relative viability (NCI-H1915; first compound 0.01 µM) was 0.529 and the relative viability (NCI-H1915; first compound 0.03162 µM) was 0.555. The relative viability (NCI-H1915; first compound 0.1 µM) was 0.61, the relative viability (NCI-H1915; first compound 0.3162 µM) was 0.461 and the relative viability (NCI-H1915; first compound 1 µM) was 0.526. It also gave a relative viability (PC-14; first compound 0.01 µM) of 0.436, a relative viability (PC-14; first compound 0.03162 µM) of 0.479 and a relative viability (PC-14; first compound 0.1 µM) of 0.541. For the same compound, the relative viability (PC-14; first compound 0.3162 µM) was 0.581, the relative viability (PC-14; first compound 1 µM) was 0.596 and the relative viability (NCI-H2347; first compound 0.01 µM) was 0.365. For the same compound, the relative viability (NCI-H2347; first compound 0.03162 µM) was 0.414, the relative viability (NCI-H2347; first compound 0.1 µM) was 0.445 and the relative viability (NCI-H2347; first compound 0.3162 µM) was 0.424. For the same compound, the relative viability (NCI-H2347; first compound 1 µM) was 0.39, the relative viability (NCI-H520; first compound 0.01 µM) was 0.238 and the relative viability (NCI-H520; first compound 0.03162 µM) was 0.224. It also gave a relative viability (NCI-H520; first compound 0.1 µM) of 0.207, a relative viability (NCI-H520; first compound 0.3162 µM) of 0.235 and a relative viability (NCI-H520; first compound 1 µM) of 0.202. For the same compound, the relative viability (NCI-H1755; first compound 0.01 µM) was 0.475, the relative viability (NCI-H1755; first compound 0.03162 µM) was 0.455 and the relative viability (NCI-H1755; first compound 0.1 µM) was 0.488. The relative viability (NCI-H1755; first compound 0.3162 µM) was 0.457, the relative viability (NCI-H1755; first compound 1 µM) was 0.456 and the relative viability (NCI-H322M; first compound 0.01 µM) was 0.484. The relative viability (NCI-H322M; first compound 0.03162 µM) was 0.472, the relative viability (NCI-H322M; first compound 0.3162 µM) was 0.462 and the relative viability (NCI-H322M; first compound 1 µM) was 0.45. The relative viability (NCI-H522; first compound 0.01 µM) was 0.887, the relative viability (NCI-H522; first compound 0.03162 µM) was 1.25 and the relative viability (NCI-H522; first compound 0.1 µM) was 0.831. It also gave a relative viability (NCI-H522; first compound 0.3162 µM) of 0.948 and a relative viability (NCI-H522; first compound 1 µM) of 0.977.

Source: the supplement of paper PMC10307832
